Experimental findings from US8993756B2 (Merck Sharp & Dohme Corp., priority 2011, dated 2015) are described below.

One test deals with JAK3 (Homo sapiens (Human), UniProt P52333). The experiment in a line: Jak Biochemical HTRF Assay (JAK3). The settings on record: recombinant GST-tagged catalytic domain, [ATP] 2.9 μM. (Time-resolved FRET reads energy transfer from a long-lived donor to a nearby acceptor.)
A further test deals with JAK2 (Homo sapiens (Human), UniProt O60674). The experiment in a line: Jak Biochemical HTRF Assay (JAK2). The settings on record: recombinant GST-tagged catalytic domain, [ATP] 8.5 μM.
Chain of JAK2 (O60674 849-1124): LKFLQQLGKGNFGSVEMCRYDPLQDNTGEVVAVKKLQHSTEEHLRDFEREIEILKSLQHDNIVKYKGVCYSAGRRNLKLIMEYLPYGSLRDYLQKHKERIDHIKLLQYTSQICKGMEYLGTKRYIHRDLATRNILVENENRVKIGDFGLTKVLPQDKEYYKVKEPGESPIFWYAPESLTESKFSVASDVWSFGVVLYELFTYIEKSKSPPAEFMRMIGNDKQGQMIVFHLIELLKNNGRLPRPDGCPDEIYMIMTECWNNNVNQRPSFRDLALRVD

Chain of JAK3 (P52333 822-1111): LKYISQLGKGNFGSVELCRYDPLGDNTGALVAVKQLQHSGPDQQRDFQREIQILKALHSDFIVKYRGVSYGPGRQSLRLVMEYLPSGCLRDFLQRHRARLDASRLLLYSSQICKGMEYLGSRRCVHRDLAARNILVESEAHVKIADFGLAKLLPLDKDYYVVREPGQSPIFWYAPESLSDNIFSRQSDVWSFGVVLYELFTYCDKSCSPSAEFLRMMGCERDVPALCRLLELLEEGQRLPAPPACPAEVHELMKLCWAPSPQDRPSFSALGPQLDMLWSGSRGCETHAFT

For orientation: IC50 means the midpoint of a concentration-inhibition curve. `CCOC(=O)c1c[nH]c2ncnc(-c3cccc(OC(F)F)c3)c12` [Example 1-59, ethyl 4-[3-(difluoromethoxy)phenyl]-7H-pyrrolo[2,3-d]pyrimidine-5-carboxylate]: the IC50 on JAK3 (given as range class) and on JAK2 (given as range class) was 10 to 500 nM each time.

For the compound `CCOC(=O)c1c[nH]c2ncnc(-c3ccnc(CO)c3)c12` [Example 1-60, ethyl 4-[2-(hydroxymethyl)pyridin-4-yl]-7H-pyrrolo[2,3-d]pyrimidine-5-carboxylate], the results for the IC50 at JAK3 (given as range class) and at JAK2 (given as range class) were 10 to 500 nM and above 500 nM, respectively.

As for `CCOC(=O)c1c[nH]c2ncnc(-c3cccc4ccsc34)c12` [Example 1-61, ethyl 4-(1-benzothiophen-7-yl)-7H-pyrrolo[2,3-d]pyrimidine-5-carboxylate], the IC50 is 10 to 500 nM on JAK3 (given as range class) and above 500 nM on JAK2 (given as range class).

Take `CCOC(=O)c1c[nH]c2ncnc(-c3cnn4c3CCCC4)c12` [Example 1-62, ethyl 4-(4,5,6,7-tetrahydropyrazolo[1,5-a]pyridin-3-yl)-7H-pyrrolo[2,3-d]pyrimidine-5-carboxylate]: the IC50 on JAK3 (given as range class) is 10 to 500 nM; on JAK2 (given as range class) it was above 500 nM.

`CCOC(=O)c1c[nH]c2ncnc(-c3coc4ccccc34)c12` [Example 1-63, ethyl 4-(1-benzofuran-3-yl)-7H-pyrrolo[2,3-d]pyrimidine-5-carboxylate]: the 50% inhibitory concentration (IC50) on JAK3 (given as range class) is 10 to 500 nM; on JAK2 (given as range class), above 500 nM.

As for `CCOC(=O)c1c[nH]c2ncnc(-c3cccc4[nH]ncc34)c12` [Example 1-64, ethyl 4-(1H-indazol-4-yl)-7H-pyrrolo[2,3-d]pyrimidine-5-carboxylate], the IC50 is 10 to 500 nM on JAK3 (given as range class) and above 500 nM at JAK2 (given as range class).

Take `CCOC(=O)c1c[nH]c2ncnc(-c3ccc4c(c3)CNC4=O)c12` [Example 1-65, ethyl 4-(1-oxo-2,3-dihydro-1H-isoindol-5-yl)-7H-pyrrolo[2,3-d]pyrimidine-5-carboxylate]: the IC50 on JAK3 (given as range class) and at JAK2 (given as range class) was 10 to 500 nM each time.

Consider `CCOC(=O)c1c[nH]c2ncnc(-c3ccc4c(c3)n(C)c(=O)n4C)c12` [Example 1-66, ethyl 4-(1,3-dimethyl-2-oxo-2,3-dihydro-1H-benzimidazol-5-yl)-7H-pyrrolo[2,3-d]pyrimidine-5-carboxylate], for which the figures for the IC50 at JAK3 (given as range class) and on JAK2 (given as range class) were 10 to 500 nM and above 500 nM, respectively.

On to `CCOC(=O)c1c[nH]c2ncnc(-c3ccc4nnn(C)c4c3)c12` [Example 1-67, ethyl 4-(1-methyl-1H-benzotriazol-6-yl)-7H-pyrrolo[2,3-d]pyrimidine-5-carboxylate], for which the IC50 on JAK3 (given as range class) is 10 to 500 nM; on JAK2 (given as range class), above 500 nM.

With `CCOC(=O)c1c[nH]c2ncnc(-c3cccc4c3CCCNC4=O)c12` [Example 1-68, ethyl 4-(1-oxo-2,3,4,5-tetrahydro-1H-2-benzazepin-6-yl)-7H-pyrrolo[2,3-d]pyrimidine-5-carboxylate], the IC50 on JAK3 (given as range class) is 10 to 500 nM; on JAK2 (given as range class), above 500 nM.

As to `CCOC(=O)c1c[nH]c2ncnc(-c3ccc4[nH]ncc4c3)c12` [Example 1-69, ethyl 4-(1H-indazol-5-yl)-7H-pyrrolo[2,3-d]pyrimidine-5-carboxylate], the half-inhibitory concentration (IC50) at JAK3 was 6.5 nM; on JAK2 it was 98 nM.

With `CCOC(=O)c1c[nH]c2ncnc(-c3csc4ccccc34)c12` [Example 1-71, ethyl 4-(1-benzothiophen-3-yl)-7H-pyrrolo[2,3-d]pyrimidine-5-carboxylate], the values for the IC50 on JAK3 (given as range class) and at JAK2 (given as range class) were 10 to 500 nM and above 500 nM, respectively.

With `CCOC(=O)c1c[nH]c2ncnc(-c3ccc4[nH]nc(C(F)(F)F)c4c3)c12` [Example 1-72, ethyl 4-[3-(trifluoromethyl)-1H-indazol-5-yl]-7H-pyrrolo[2,3-d]pyrimidine-5-carboxylate], the results for the IC50 at JAK3 (given as range class) and at JAK2 (given as range class) were 10 to 500 nM and above 500 nM, respectively.

As to `CCOC(=O)c1c[nH]c2ncnc(-c3cccc4c3CNC4=O)c12` [Example 1-73, ethyl 4-(1-oxo-2,3-dihydro-1H-isoindol-4-yl)-7H-pyrrolo[2,3-d]pyrimidine-5-carboxylate], the IC50 at JAK3 (given as range class) is 10 to 500 nM; on JAK2 (given as range class), above 500 nM.

Take `CCOC(=O)c1c[nH]c2ncnc(-c3ccc4c(c3)CCN(C(=O)OC(C)(C)C)C4)c12` [Example 1-74, tent-butyl 6-[5-(ethoxycarbonyl)-7H-pyrrolo[2,3-d]pyrimidin-4-yl]-3,4-dihydroisoquinoline-2(1H)-carboxylate]: the 50% inhibitory concentration (IC50) at JAK3 (given as range class) was 10 to 500 nM; on JAK2 (given as range class) it was above 500 nM.

As to `CCOC(=O)c1c[nH]c2ncnc(-c3ccc4c(c3)C(=O)NC4)c12` [Example 1-75, ethyl 4-(3-oxo-2,3-dihydro-1H-isoindol-5-yl)-7H-pyrrolo[2,3-d]pyrimidine-5-carboxylate], the IC50 is 10 to 500 nM on JAK3 (given as range class) and above 500 nM at JAK2 (given as range class).

`CCOC(=O)c1c[nH]c2ncnc(-c3ccc4cn[nH]c4c3)c12` [Example 1-76, ethyl 4-(1H-indazol-6-yl)-7H-pyrrolo[2,3-d]pyrimidine-5-carboxylate]: the IC50 at JAK3 (given as range class) and on JAK2 (given as range class) was 10 to 500 nM throughout.

In the case of `CCOC(=O)c1c[nH]c2ncnc(-c3ccc4c(c3)CN(C(=O)OC(C)(C)C)C4=O)c12` [Example 1-77, ethyl 4-[2-(tert-butoxycarbonyl)-1-oxo-2,3-dihydro-1H-isoindol-5-yl]-7H-pyrrolo[2,3-d]pyrimidine-5-carboxylate], the IC50 was 10 to 500 nM on JAK3 (given as range class) and above 500 nM on JAK2 (given as range class).

As for `CCOC(=O)c1c[nH]c2ncnc(-c3ccc4c(c3)CN(C(=O)OC(C)(C)C)CC4)c12` [Example 1-78, tert-butyl 7-[5-(ethoxycarbonyl)-7H-pyrrolo[2,3-d]pyrimidin-4-yl]-3,4-dihydroisoquinoline-2(1H)-carboxylate], the IC50 at JAK3 (given as range class) is 10 to 500 nM; at JAK2 (given as range class), above 500 nM.

In the case of `CCOC(=O)c1c[nH]c2ncnc(-c3ccc4c(c3)CN(C(=O)OC(C)(C)C)CCO4)c12` [Example 1-79, tent-butyl 7-[5-(ethoxycarbonyl)-7H-pyrrolo[2,3-d]pyrimidin-4-yl]-2,3-dihydro-1,4-benzoxazepine-4(5H)-carboxylate], the IC50 on JAK3 (given as range class) is 10 to 500 nM; at JAK2 (given as range class), above 500 nM.

As to `CCOC(=O)c1c[nH]c2ncnc(-c3ccc(N)cc3)c12` [Example 1-80, ethyl 4-(4-aminophenyl)-7H-pyrrolo[2,3-d]pyrimidine-5-carboxylate], the IC50 on JAK3 was 2.3 nM; at JAK2 it was 53 nM.

For the compound `CCOC(=O)c1c[nH]c2ncnc(-c3ccn[nH]3)c12` [Example 1-81, ethyl 4-(1H-pyrazol-5-yl)-7H-pyrrolo[2,3-d]pyrimidine-5-carboxylate], the IC50 was 10 to 500 nM on JAK3 (given as range class) and above 500 nM on JAK2 (given as range class).

For `CCOC(=O)c1c[nH]c2ncnc(-c3ccc4scnc4c3)c12` [Example 1-82, ethyl 4-(1,3-benzothiazol-5-yl)-7H-pyrrolo[2,3-d]pyrimidine-5-carboxylate], the IC50 at JAK3 (given as range class) and on JAK2 (given as range class) was 10 to 500 nM in each case.

Turning to `CCOC(=O)c1c[nH]c2ncnc(-c3ccc4cc[nH]c4c3)c12` [Example 1-83, ethyl 4-(1H-indol-6-yl)-7H-pyrrolo[2,3-d]pyrimidine-5-carboxylate], the IC50 at JAK3 is 9.7 nM; on JAK2, 137 nM.

For the compound `CCOC(=O)c1c[nH]c2ncnc(-c3cnc4[nH]ccc4c3)c12` [Example 1-84, ethyl 4-(1H-pyrrolo[2,3-b]pyridin-5-yl)-7H-pyrrolo[2,3-d]pyrimidine-5-carboxylate], the IC50 at JAK3 (given as range class) and at JAK2 (given as range class) was 10 to 500 nM each time.

Regarding `CCOC(=O)c1c[nH]c2ncnc(-c3ccc(N4CCN(C)CC4)cc3)c12` [Example 1-85, ethyl 4-[4-(4-methylpiperazin-1-yl)phenyl]-7H-pyrrolo[2,3-d]pyrimidine-5-carboxylate], the IC50 at JAK3 (given as range class) was 10 to 500 nM; at JAK2 (given as range class) it was above 500 nM.

For `CCOC(=O)c1c[nH]c2ncnc(C3=CCC(O)CC3)c12` (centres unmarked) [Example 1-86, ethyl 4-(4-hydroxycyclohex-1-en-1-yl)-7H-pyrrolo[2,3-d]pyrimidine-5-carboxylate], the IC50 on JAK3 (given as range class) and on JAK2 (given as range class) was 10 to 500 nM throughout.

`CCOC(=O)c1c[nH]c2ncnc(-c3ccc(N4CCN(C)CC4)nc3)c12` [Example 1-87, ethyl 4-[6-(4-methylpiperazin-1-yl)pyridin-3-yl]-7H-pyrrolo[2,3-d]pyrimidine-5-carboxylate]: the 50% inhibitory concentration (IC50) on JAK3 (given as range class) is 10 to 500 nM; on JAK2 (given as range class), above 500 nM.

With `CCOC(=O)c1c[nH]c2ncnc(C3=CCCOC3)c12` [Example 1-88, ethyl 4-(5,6-dihydro-2H-pyran-3-yl)-7H-pyrrolo[2,3-d]pyrimidine-5-carboxylate], the figures for the IC50 on JAK3 (given as range class) and at JAK2 (given as range class) were 10 to 500 nM and above 500 nM, respectively.

In the case of `CCOC(=O)c1c[nH]c2ncnc(-c3ccnc(OC)c3)c12` [Example 1-89, ethyl 4-(2-methoxypyridin-4-yl)-7H-pyrrolo[2,3-d]pyrimidine-5-carboxylate], the IC50 at JAK3 (given as range class) was 10 to 500 nM; on JAK2 (given as range class), above 500 nM.

Take `CCOC(=O)c1c[nH]c2ncnc(C3=CCC(C#N)CC3)c12` (centres unmarked) [Example 1-90, ethyl 4-(4-cyanocyclohex-1-en-1-yl)-7H-pyrrolo[2,3-d]pyrimidine-5-carboxylate]: the IC50 at JAK3 (given as range class) and at JAK2 (given as range class) was 10 to 500 nM in each case.

With `CCOC(=O)c1c[nH]c2ncnc(-c3cnc(OC)nc3)c12` [Example 1-91, ethyl 4-(2-methoxypyrimidin-5-yl)-7H-pyrrolo[2,3-d]pyrimidine-5-carboxylate], the values for the IC50 at JAK3 (given as range class) and at JAK2 (given as range class) were 10 to 500 nM and above 500 nM, respectively.

Regarding `CCOC(=O)c1c[nH]c2ncnc(-c3cnn(CCS(C)(=O)=O)c3)c12` [Example 1-92, ethyl 4-{1-[2-(methylsulfonyl)ethyl]-1H-pyrazol-4-yl}-7H-pyrrolo[2,3-d]pyrimidine-5-carboxylate], the IC50 at JAK3 (given as range class) is 10 to 500 nM; at JAK2 (given as range class), above 500 nM.

Turning to `CCOC(=O)c1c[nH]c2ncnc(-c3ccc(OC)nc3)c12` [Example 1-93, ethyl 4-(6-methoxypyridin-3-yl)-7H-pyrrolo[2,3-d]pyrimidine-5-carboxylate], the IC50 at JAK3 (given as range class) was 10 to 500 nM; at JAK2 (given as range class), above 500 nM.
